The target of series [1] is T1, human delta receptor (Homo sapiens, UniProt P41143).
T1 construct: purchased Perkin Elmer, Boston, Mass; 6110549; host or cells: HEK-293 cells
As to the kind of experiment: radioligand binding, human delta receptor, HEK-293 cell membranes. The following applies: cell not marked (rat), species not given, read-out: δ.

The subject of series [2] is seizure-like convulsions in mice. As to the kind of experiment: mouse seizure-like convulsions. The class given is in vivo. In outline:
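Male CD-1 mice (Charles River, Raleigh, N.C.) of 20-25 g were dosed and watched for one hour to detect seizure-like convulsions mediated by central delta receptors. An event was counted when clonic or tonic/clonic muscle movements involved the whole body, usually followed by brief catalepsy, judged by no attempt to withdraw front paws from a bar 2-3 inches above the floor.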

Series [3] concerns mouse vas deferens. Description: electrically stimulated mouse vas deferens (MVD) ED50. The class given is cell-based. To be noted: ED50, inhibition of electrically induced contractions.
Series [4] deals with guinea pig ileum. As to the kind of experiment: electrically stimulated guinea pig ileum (GPI) ED50. The format is cell-based. To be noted: Cavia porcellus; ED50, inhibition of electrically induced contractions. The protocol:
Further the compounds of formula (1) were evaluated for in vitro opioid receptor activity in various receptor systems, including mouse vas deferens (Mouse Vas Deferens ED50), and guinea pig ileum (Guinea Pig Ileum ED50). The assay procedures used for such determinations of receptor activity are set out below.
Intact ileums (about 3 cm length) were removed from guinea pig and suspended with 1 g of tension in a bath chamber as described for the vasa deferentia. The ileums were stimulated with electrical square-wave pulses of 0.1-Hz, 1 msec pulse duration at supramaximal voltage.
The ED50 values were extrapolated from curves showing the dose concentration plotted against the response (J. A. H. Lord, A. A. Waterfield, J. Hughes, H. W. Kosterlitz, Nature 267, 495, (1977)).

Series [5] has as its target T2, human mu opioid receptor (Homo sapiens, UniProt P35372).
T2 construct: purchased Perkin Elmer, Boston, Mass; 6110535; host or cells: CHO cells
Description: radioligand binding, human mu opioid receptor, CHO cell membranes. To be noted: species not given, read-out: μ.

T2 sequence (P35372 whole entry): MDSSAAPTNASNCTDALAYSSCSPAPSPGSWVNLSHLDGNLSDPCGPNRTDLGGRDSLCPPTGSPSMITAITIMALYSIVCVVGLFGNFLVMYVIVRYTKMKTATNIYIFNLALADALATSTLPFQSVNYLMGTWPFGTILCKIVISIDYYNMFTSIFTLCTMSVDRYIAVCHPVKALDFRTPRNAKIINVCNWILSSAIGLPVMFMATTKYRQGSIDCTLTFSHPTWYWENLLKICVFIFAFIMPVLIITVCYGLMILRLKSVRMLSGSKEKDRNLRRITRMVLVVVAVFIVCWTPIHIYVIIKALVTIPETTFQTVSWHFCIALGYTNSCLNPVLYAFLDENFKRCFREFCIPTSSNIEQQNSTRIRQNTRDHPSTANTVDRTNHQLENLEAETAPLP
T1 sequence (P41143 whole entry): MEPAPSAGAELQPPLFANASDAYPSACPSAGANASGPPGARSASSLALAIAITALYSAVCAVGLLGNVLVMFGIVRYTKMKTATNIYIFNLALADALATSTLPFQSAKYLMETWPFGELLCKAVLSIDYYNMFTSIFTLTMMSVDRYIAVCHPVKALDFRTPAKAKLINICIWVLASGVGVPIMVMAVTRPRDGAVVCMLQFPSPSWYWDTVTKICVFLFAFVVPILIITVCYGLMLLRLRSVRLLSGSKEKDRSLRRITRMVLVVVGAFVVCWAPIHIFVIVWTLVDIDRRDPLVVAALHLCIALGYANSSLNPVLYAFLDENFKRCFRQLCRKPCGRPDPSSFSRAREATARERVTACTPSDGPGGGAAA

As to `CCOC(=O)CN1CCCN(C(=O)c2cccc(C(c3cccc(O)c3)N3C[C@@H](C)N(Cc4ccccc4)C[C@@H]3C)c2)CC1` (stereo partly drawn), the Ki in series [1] came to 0.21 nM; in series [5], 0.56 nM. The compound also showed a Seiz. in series [2] (10 mg/kg IV) of 60% 10 mg/kg IV. Moreover, the EC50 (in general, the concentration that produces a half-maximal response) turned out to be 2.4 nM in series [3] and 526 nM in series [4].
The matching figures for `CCOC(=O)CCN1CCCN(C(=O)c2cccc([C@H](c3cccc(O)c3)N3C[C@@H](C)N(CC4CC4)C[C@@H]3C)c2)CC1`: 121 nM, 2.9 nM, 0% 10 mg/kg IV, 22.6 nM and 567 nM.
As for `CCOC(=O)C1CCN(C(=O)c2cccc([C@H](c3cccc(O)c3)N3C[C@@H](C)N(CC4CC4)C[C@@H]3C)c2)CC1` [Example 126, 1-{3-[(R)-((1S,4R)-4-Cyclopropylmethyl-2,5-dimethyl-piperazin-1-yl)-(3-hydroxy-phenyl)-methyl]-benzoyl}-piperidine-4-carboxylic acid ethyl ester], the Ki in series [1] is 3.7 nM; in series [5] it was 1.5 nM. For the same compound, the Seiz. in series [2] (10 mg/kg IV) is 10% 10 mg/kg IV. Also, the half-maximal effective concentration (EC50) in series [3] worked out at 8.64 nM; in series [4], 3310 nM.
Turning to `CCOC(=O)CCCN1CCCN(C(=O)c2cccc(C(c3cccc(O)c3)N3C[C@@H](C)N(Cc4cccc(F)c4)C[C@@H]3C)c2)CC1` (stereo partly drawn), the results for the Ki in series [1] and in series [5] were 1.7 nM and 2.3 nM, respectively. Also, the EC50 in series [3] amounted to 30 nM; in series [4] it was 1500 nM.
On to `C[C@@H]1CN([C@@H](c2cccc(O)c2)c2cccc(C(=O)N3CCC(C(=O)O)CC3)c2)[C@@H](C)CN1CC1CC1` [Example 127, 1-{3-[(R)-((1S,4R)-4-Cyclopropylmethyl-2,5-dimethyl-piperazin-1-yl)-(3-hydroxy-phenyl)-methyl]-benzoyl}-piperidine-4-carboxylic acid], for which, in series [1], the Ki was found to be 4.35 nM. Further, the Seiz. in series [2] (10 mg/kg IV) was found to be 0% 10 mg/kg IV. In addition, the EC50 in series [3] worked out at 11.5 nM; in series [4], 242 nM.
`C[C@@H]1CN(C(c2cccc(O)c2)c2cccc(C(=O)N3CCCN(CC(=O)O)CC3)c2)[C@@H](C)CN1Cc1ccccc1` (stereo partly drawn) had a Seiz. in series [2] (20 mg/kg IV) of 0% 20 mg/kg IV. Moreover, the EC50 in series [3] was 1.4 nM; in series [4], above 1000 nM. Further, the Ki in series [5] came out at 1.27 nM.
As for `C[C@@H]1CN([C@@H](c2cccc(O)c2)c2cccc(C(=O)N3CCC(C(=O)O)CC3)c2)[C@@H](C)CN1Cc1ccccc1` [Example 123, 1-{3-[(R)-((2S,5R)-4-Benzyl-2,5-dimethyl-piperazin-1-yl)-(3-hydroxy-phenyl)-methyl]-benzoyl}-piperidine-4-carboxylic acid], the Seiz. in series [2] (10 mg/kg IV) amounted to 0% 10 mg/kg IV. The EC50 in series [3] stood at 0.48 nM; in series [4] it was 17.8 nM.
On the same counts, the results for `C[C@@H]1CN([C@@H](c2cccc(O)c2)c2cccc(C(=O)N3CCC(C(=O)O)CC3)c2)[C@@H](C)CN1Cc1cccc(F)c1` [Example 125, 1-{3-[(R)-[(2S,5R)-4-(3-Fluoro-benzyl)-2,5-dimethyl-piperazin-1-yl]-(3-hydroxyphenyl)-methyl]-benzoyl}-piperidine-4-carboxylic acid] are 0% 10 mg/kg IV, 1.42 nM and 46.7 nM.
For `C=CCN1C[C@H](C)N([C@@H](c2cccc(O)c2)c2cccc(C(=O)N3CCN(CC(=O)OCC)CC3)c2)C[C@H]1C` [Example 63, (4-{3-[(R)-((2S,5R)-4-Allyl-2,5-dimethyl-piperazin-1-yl)-(3-hydroxy-phenyl)-methyl]-benzoyl}-piperazin-1-yl)-acetic acid ethyl ester], the Ki in series [1] amounted to 0.44 nM; in series [5] it was 0.47 nM. Also, the Seiz. in series [2] (10 mg/kg IV) was 20% 10 mg/kg IV. The compound also yielded an EC50 in series [3] of 7.71 nM.
Consider `C=CCN1C[C@H](C)N([C@@H](c2cccc(O)c2)c2cccc(C(=O)N3CCN(Cc4ccc(C(=O)OC)cc4)CC3)c2)C[C@H]1C` [Example 91, 4-(4-{3-[(R)-((2S,5R)-4-Allyl-2,5-dimethyl-piperazin-1-yl)-(3-hydroxy-phenyl)-methyl]-benzoyl}-piperazin-1-ylmethyl)-benzoic acid methyl ester], for which the values for the Ki in series [1] and in series [5] were 2.7 nM and 6.5 nM, respectively. The same compound showed a Seiz. in series [2] (10 mg/kg IV) of 70% 10 mg/kg IV. The compound also gave an EC50 in series [3] of 23.1 nM.
As for `C=CCN1C[C@H](C)N(C(c2cccc(O)c2)c2cccc(C(=O)N3CCCN(CCCCCC(=O)O)CC3)c2)C[C@H]1C` (stereo partly drawn), the Ki in series [1] turned out to be 5.3 nM; in series [5], 89.9 nM. For the same compound, in series [2] (10 mg/kg IV), the Seiz. amounted to 0% 10 mg/kg IV. Besides, in series [3], the EC50 is 19 nM.
As to `C=CCN1C[C@H](C)N([C@@H](c2cccc(O)c2)c2cccc(C(=O)N3CCC(C(=O)O)CC3)c2)C[C@H]1C` [Example 120, 1-{3-[(R)-((2S,5R)-4-Allyl-2,5-dimethyl-piperazin-1-yl)-(3-hydroxy-phenyl)-methyl]-benzoyl}-piperidine-4-carboxylic acid], the Seiz. in series [2] (10 mg/kg IV) was found to be 10% 10 mg/kg IV. In addition, the results for the EC50 in series [3] and in series [4] were 2.49 nM and 48.6 nM, respectively. The Ki in series [5] was determined as 4.1 nM.
Consider `C=CCN1C[C@H](C)N([C@@H](c2cccc(O)c2)c2cccc(C(=O)N3CCC(NCCCC(=O)O)CC3)c2)C[C@H]1C` [Example 142, 4-(1-{3-[(R)-((2S,5R)-4-Allyl-2,5-dimethyl-piperazin-1-yl)-(3-hydroxy-phenyl)-methyl]-benzoyl}-piperidin-4-ylamino)-butyric acid], for which the Ki turned out to be 1.7 nM in series [1] and 8.7 nM in series [5]. The Seiz. in series [2] (10 mg/kg IV) came out at 0% 10 mg/kg IV. Moreover, a half-maximal response in series [3] (EC50) required 12.5 nM.
In the case of `C[C@@H]1CN([C@@H](c2cccc(O)c2)c2cccc(C(=O)N3CCN(CCCCCC(=O)O)CC3)c2)[C@@H](C)CN1Cc1ccccc1` [Example 97, 6-(4-{3-[(R)-((2S,5R)-4-Benzyl-2,5-dimethyl-piperazin-1-yl)-(3-hydroxy-phenyl)-methyl]-benzoyl}-piperazin-1-yl)-hexanoic acid], in series [1], the Ki is 1.2 nM. The Seiz. in series [2] (10 mg/kg IV) was determined as 0% 10 mg/kg IV. Further, the EC50 in series [3] is 2.5 nM; in series [4] it was 445 nM.
With `C[C@@H]1CN(C(c2cccc(O)c2)c2cccc(C(=O)N3CCCN(CCCC(=O)O)CC3)c2)[C@@H](C)CN1Cc1cccc(F)c1` (stereo partly drawn), the Ki is 94 nM in series [1] and 0.27 nM in series [5]. For the same compound, the Seiz. in series [2] (10 mg/kg IV) is 0% 10 mg/kg IV. The EC50 in series [3] turned out to be 6.37 nM.
For the compound `C[C@@H]1CN(C(c2cccc(O)c2)c2cccc(C(=O)N3CCCN(CCCCCC(=O)O)CC3)c2)[C@@H](C)CN1Cc1ccccc1` (stereo partly drawn), the Ki in series [1] stood at 2.8 nM; in series [5], 3.9 nM. Also, the EC50 is 3.26 nM in series [3] and 303 nM in series [4].
As to `CCOC(=O)CCCCCN1CCN(C(=O)c2cccc([C@H](c3cccc(O)c3)N3C[C@@H](C)N(Cc4ccccc4)C[C@@H]3C)c2)CC1` [Example 96, 6-(4-{3-[(R)-((2S,5R)-4-Benzyl-2,5-dimethyl-piperazin-1-yl)-(3-hydroxy-phenyl)-methyl]-benzoyl}-piperazin-1-yl)-hexanoic acid ethyl ester], the values for the Ki in series [1] and in series [5] were 6.9 nM and 2 nM, respectively. The same compound yielded a Seiz. in series [2] (10 mg/kg IV) of 60% 10 mg/kg IV. In series [3], this compound had an EC50 of 10.4 nM.

These data come from patent US7683168B2, “Compositions of novel opioid compounds and method of use thereof” (priority 2005, dated 2010).
